The test system of the first experiment is LCLC-97TM1. In words: relative viability (nuclei count vs DMSO), 5 days (fraction); higher = more cells survive. As to conditions: first compound 2 µM. The essentials:
(§1)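 Nuclei were stained with Hoechst during a one-step fixation (final 0.05% Triton X-100, 1% formaldehyde, 1 ug/ml Hoechst) carried out 5 days after dosing, then counted on 4× images. The cells, lung cancer lines in 1536-well plates, had been dosed by pin tool the day after seeding with one drug alone or a fixed anchor-drug dose plus five library-drug doses (not always all listed) in √10 steps. Relative viability is the nuclei count in treated wells divided by that in vehicle wells, and each value is the median of duplicate plates.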
In turn, `COCC1(CO)C(=O)C2CCN1CC2` (stereo unspecified) [PRIMA-1MET] + CS(=O)(=O)CCNCc1ccc(-c2ccc3ncnc(Nc4ccc(OCc5cccc(F)c5)c(Cl)c4)c3c2)o1 [Lapatinib] (partner 2 µM) displayed a relative viability of 0.998.

In turn, `COCC1(CO)C(=O)C2CCN1CC2` (stereo unspecified) [PRIMA-1MET] + C[C@]1(O)C[C@@H](c2nc(-c3ccc4ccc(-c5ccccc5)nc4c3)c3c(N)nccn32)C1 [Linsitinib] (partner 1 µM) displayed a relative viability of 0.183.

`COCC1(CO)C(=O)C2CCN1CC2` (stereo unspecified) [PRIMA-1MET] + COc1cc2c(Oc3ccc(NC(=O)C4(C(=O)Nc5ccc(F)cc5)CC4)cc3F)ccnc2cc1OCCCN1CCOCC1 [Foretinib] (partner 0.25 µM): the relative viability came to 0.926.

As to `COCC1(CO)C(=O)C2CCN1CC2` (stereo unspecified) [PRIMA-1MET] + Cc1nc(NC(=O)N2CCC[C@H]2C(N)=O)sc1-c1ccnc(C(C)(C)C(F)(F)F)c1 [Alpelisib] (partner 2 µM), the relative viability came to 0.22.

Staying with this experiment, now noted: first compound 6.325 µM.
Take `COCC1(CO)C(=O)C2CCN1CC2` (stereo unspecified) [PRIMA-1MET] + CS(=O)(=O)N1CCN(Cc2cc3nc(-c4cccc5[nH]ncc45)nc(N4CCOCC4)c3s2)CC1 [Pictilisib] (partner 1 µM): the relative viability came to 0.135.

On to `COCC1(CO)C(=O)C2CCN1CC2` (stereo unspecified) [PRIMA-1MET] + CS(=O)(=O)CCNCc1ccc(-c2ccc3ncnc(Nc4ccc(OCc5cccc(F)c5)c(Cl)c4)c3c2)o1 [Lapatinib] (partner 2 µM), for which the relative viability amounted to 1.08.

In turn, `COCC1(CO)C(=O)C2CCN1CC2` (stereo unspecified) [PRIMA-1MET] + C[C@]1(O)C[C@@H](c2nc(-c3ccc4ccc(-c5ccccc5)nc4c3)c3c(N)nccn32)C1 [Linsitinib] (partner 1 µM) showed a relative viability of 0.199.

`COCC1(CO)C(=O)C2CCN1CC2` (stereo unspecified) [PRIMA-1MET] + COc1cc2c(Oc3ccc(NC(=O)C4(C(=O)Nc5ccc(F)cc5)CC4)cc3F)ccnc2cc1OCCCN1CCOCC1 [Foretinib] (partner 0.25 µM): the relative viability was 0.945.

`COCC1(CO)C(=O)C2CCN1CC2` (stereo unspecified) [PRIMA-1MET] + Cc1nc(NC(=O)N2CCC[C@H]2C(N)=O)sc1-c1ccnc(C(C)(C)C(F)(F)F)c1 [Alpelisib] (partner 2 µM) came in with a relative viability of 0.232.

The same experiment, now with this note: first compound 20 µM.
`COCC1(CO)C(=O)C2CCN1CC2` (stereo unspecified) [PRIMA-1MET] + CS(=O)(=O)N1CCN(Cc2cc3nc(-c4cccc5[nH]ncc45)nc(N4CCOCC4)c3s2)CC1 [Pictilisib] (partner 1 µM) had a relative viability of 0.117.

In the case of `COCC1(CO)C(=O)C2CCN1CC2` (stereo unspecified) [PRIMA-1MET] + CS(=O)(=O)CCNCc1ccc(-c2ccc3ncnc(Nc4ccc(OCc5cccc(F)c5)c(Cl)c4)c3c2)o1 [Lapatinib] (partner 2 µM), the relative viability came to 0.148.

Regarding `COCC1(CO)C(=O)C2CCN1CC2` (stereo unspecified) [PRIMA-1MET] + C[C@]1(O)C[C@@H](c2nc(-c3ccc4ccc(-c5ccccc5)nc4c3)c3c(N)nccn32)C1 [Linsitinib] (partner 1 µM), the relative viability is 0.117.

On to `COCC1(CO)C(=O)C2CCN1CC2` (stereo unspecified) [PRIMA-1MET] + COc1cc2c(Oc3ccc(NC(=O)C4(C(=O)Nc5ccc(F)cc5)CC4)cc3F)ccnc2cc1OCCCN1CCOCC1 [Foretinib] (partner 0.25 µM), for which the relative viability stood at 0.826.

`COCC1(CO)C(=O)C2CCN1CC2` (stereo unspecified) [PRIMA-1MET] + Cc1nc(NC(=O)N2CCC[C@H]2C(N)=O)sc1-c1ccnc(C(C)(C)C(F)(F)F)c1 [Alpelisib] (partner 2 µM) came in with a relative viability of 0.0607.

For another experiment, the system named is NCI-H1563. Described as above. The settings on record: first compound 0.2 µM. The essentials:
as §1
`COCC1(CO)C(=O)C2CCN1CC2` (stereo unspecified) [PRIMA-1MET] + CS(=O)(=O)N1CCN(Cc2cc3nc(-c4cccc5[nH]ncc45)nc(N4CCOCC4)c3s2)CC1 [Pictilisib] (partner 1 µM) had a relative viability of 0.645.

The compound `COCC1(CO)C(=O)C2CCN1CC2` (stereo unspecified) [PRIMA-1MET] + CS(=O)(=O)CCNCc1ccc(-c2ccc3ncnc(Nc4ccc(OCc5cccc(F)c5)c(Cl)c4)c3c2)o1 [Lapatinib] (partner 2 µM) came in with a relative viability of 0.991.

For the compound `COCC1(CO)C(=O)C2CCN1CC2` (stereo unspecified) [PRIMA-1MET] + C[C@]1(O)C[C@@H](c2nc(-c3ccc4ccc(-c5ccccc5)nc4c3)c3c(N)nccn32)C1 [Linsitinib] (partner 1 µM), the relative viability stood at 1.25.

`COCC1(CO)C(=O)C2CCN1CC2` (stereo unspecified) [PRIMA-1MET] + COc1cc2c(Oc3ccc(NC(=O)C4(C(=O)Nc5ccc(F)cc5)CC4)cc3F)ccnc2cc1OCCCN1CCOCC1 [Foretinib] (partner 0.25 µM) yielded a relative viability of 1.05.

`COCC1(CO)C(=O)C2CCN1CC2` (stereo unspecified) [PRIMA-1MET] + Cc1nc(NC(=O)N2CCC[C@H]2C(N)=O)sc1-c1ccnc(C(C)(C)C(F)(F)F)c1 [Alpelisib] (partner 2 µM) yielded a relative viability of 0.889.

The same experiment, now with this note: first compound 0.6325 µM.
The compound `COCC1(CO)C(=O)C2CCN1CC2` (stereo unspecified) [PRIMA-1MET] + CS(=O)(=O)N1CCN(Cc2cc3nc(-c4cccc5[nH]ncc45)nc(N4CCOCC4)c3s2)CC1 [Pictilisib] (partner 1 µM) gave a relative viability of 0.696.

On to `COCC1(CO)C(=O)C2CCN1CC2` (stereo unspecified) [PRIMA-1MET] + CS(=O)(=O)CCNCc1ccc(-c2ccc3ncnc(Nc4ccc(OCc5cccc(F)c5)c(Cl)c4)c3c2)o1 [Lapatinib] (partner 2 µM), for which the relative viability amounted to 0.988.

The compound `COCC1(CO)C(=O)C2CCN1CC2` (stereo unspecified) [PRIMA-1MET] + C[C@]1(O)C[C@@H](c2nc(-c3ccc4ccc(-c5ccccc5)nc4c3)c3c(N)nccn32)C1 [Linsitinib] (partner 1 µM) returned a relative viability of 1.14.

`COCC1(CO)C(=O)C2CCN1CC2` (stereo unspecified) [PRIMA-1MET] + COc1cc2c(Oc3ccc(NC(=O)C4(C(=O)Nc5ccc(F)cc5)CC4)cc3F)ccnc2cc1OCCCN1CCOCC1 [Foretinib] (partner 0.25 µM) had a relative viability of 1.

The compound `COCC1(CO)C(=O)C2CCN1CC2` (stereo unspecified) [PRIMA-1MET] + Cc1nc(NC(=O)N2CCC[C@H]2C(N)=O)sc1-c1ccnc(C(C)(C)C(F)(F)F)c1 [Alpelisib] (partner 2 µM) showed a relative viability of 0.904.

The same experiment, now with this note: first compound 2 µM.
The compound `COCC1(CO)C(=O)C2CCN1CC2` (stereo unspecified) [PRIMA-1MET] + CS(=O)(=O)N1CCN(Cc2cc3nc(-c4cccc5[nH]ncc45)nc(N4CCOCC4)c3s2)CC1 [Pictilisib] (partner 1 µM) came in with a relative viability of 0.632.

On to `COCC1(CO)C(=O)C2CCN1CC2` (stereo unspecified) [PRIMA-1MET] + CS(=O)(=O)CCNCc1ccc(-c2ccc3ncnc(Nc4ccc(OCc5cccc(F)c5)c(Cl)c4)c3c2)o1 [Lapatinib] (partner 2 µM), for which the relative viability was 0.606.

`COCC1(CO)C(=O)C2CCN1CC2` (stereo unspecified) [PRIMA-1MET] + C[C@]1(O)C[C@@H](c2nc(-c3ccc4ccc(-c5ccccc5)nc4c3)c3c(N)nccn32)C1 [Linsitinib] (partner 1 µM): the relative viability worked out at 1.15.

The compound `COCC1(CO)C(=O)C2CCN1CC2` (stereo unspecified) [PRIMA-1MET] + COc1cc2c(Oc3ccc(NC(=O)C4(C(=O)Nc5ccc(F)cc5)CC4)cc3F)ccnc2cc1OCCCN1CCOCC1 [Foretinib] (partner 0.25 µM) registered a relative viability of 0.838.

Take `COCC1(CO)C(=O)C2CCN1CC2` (stereo unspecified) [PRIMA-1MET] + Cc1nc(NC(=O)N2CCC[C@H]2C(N)=O)sc1-c1ccnc(C(C)(C)C(F)(F)F)c1 [Alpelisib] (partner 2 µM): the relative viability stood at 0.915.

The experiment is the same for the next values; noted with them: first compound 6.325 µM.
Compound `COCC1(CO)C(=O)C2CCN1CC2` (stereo unspecified) [PRIMA-1MET] + CS(=O)(=O)N1CCN(Cc2cc3nc(-c4cccc5[nH]ncc45)nc(N4CCOCC4)c3s2)CC1 [Pictilisib] (partner 1 µM) displayed a relative viability of 0.629.

The compound `COCC1(CO)C(=O)C2CCN1CC2` (stereo unspecified) [PRIMA-1MET] + CS(=O)(=O)CCNCc1ccc(-c2ccc3ncnc(Nc4ccc(OCc5cccc(F)c5)c(Cl)c4)c3c2)o1 [Lapatinib] (partner 2 µM) registered a relative viability of 1.09.

For the origin of these results see the supplement of paper PMC10307832.
